# Counter-ions that a name gives are not always drawn.
# Molecular target: T1, rat GABAA α2β2γ2 Receptors (Rattus norvegicus, UniProt P23576)
# T1 construct: expressed in transfected cells; pIRES Neo2 / Hygro2 / Puro2 vectors
# Test: PatchXpress 7000A automated parallel patch-clamp: potentiation of GABA EC20 current in HEK293 cells
# Type: cell-based
# Settings: percent increase in mean GABA EC20 current response; HEK293 cells stably expressing rat GABAA α2β2γ2; voltage-clamped at −60 mV
# Description: Cell Line Generation and Transient Expression. In order to generate stable clonal lines expressing GABAA configurations containing α2β2γ2 subunits, HEK293 cells were transfected with 2 μg of the subunit, using the Invitrogen Lipofectamine PLUS protocol. The following DNA and vector were used for the stable transfection: α2 subunits in pIRES Neo2, β2 subunit in pIRES Hygro2, and a γ2 subunit in pIRES Puro2. Transfectants were selected with G418, Hygromycin B, and Puromycin antibiotics and cloned by limiting dilution. For transient expression, transfections were performed using the Amaxa transfection protocol and 2 μg DNA of the GABAA receptor subunit using Amaxa transfection protocol. Cells were used for experiments 24-72 hrs post transfection.
# PatchXpress® 7000A Automated Parallel Patch-Clamp System. HEK293 cells stably expressing recombinant the rat GABAA/α2β2γ2 configuration were harvested by a single DPBS wash followed by 0.025% Trypsin-EDTA treatment for one minute at room temperature. A 6-ml cell suspension (1.7×10^5 cells/ml) was centrifuged at 500 rpm for 60 s. The cell pellet was gently agitated, suspended in 150 μl extracellular saline buffer, and transferred to a 1.5-ml tube.
# After manually placing the AVIVA Biosciences SealChip 16™ in the holder of the PatchXpress®, the SealChip16™ was automatically prepared for application of the cells. Intracellular solution containing (in mM) CsCl, 135; EGTA, 11; MgCl2, 1; HEPES, 10; ATP, 5; GTP, 0.3 (pH 7.3 with CsOH, 290-300 mOsmol) was injected into the bottom of each chamber, and extracellular solution containing (in mM) NaCl, 140; KCl, 4; CaCl2, 1.8; MgCl2, 1; glucose, 10; HEPES, 10; ATP-K2, 5 (pH 7.4 with NaOH 305-310 mOsmol) was perfused into the top of the chambers through a 16-nozzle wash station. Throughout this period, the pressure controller maintained a positive pressure (+10 mmHg) from the intracellular side to keep the hole free of debris. Seal formation was achieved by a ramp increase in negative pressure from 0 to −35 mmHg at a rate of −3.5 mmHg/s every 10 s until a giga ohm seal was obtained and verified for 30 s.
# Compounds were prepared from fresh DMSO stock and were transferred to a 96-well disposable glass insert compound plate for placement in the PatchXpress®. A full 10 point concentration-response curve for GABA was obtained for the GABA receptor cell line, from which an EC20 was estimated. Test compounds were assayed for their ability to potentiate the current response by an EC20 concentration of GABA. Each experiment began by two consecutive applications of GABA EC20 alone. Following formation of a giga-ohm seal, patch chambers were perfused with extracellular saline for 60 s to remove excess cells from the well. Cells were then voltage-clamped to −60 mV for the duration of the experiment. After 60 s, 30 μl (10 μl/s over 3 s) of GABA EC20 concentration, which elicited a GABA receptor-mediated inward Cl^− current generally in the order of 200-300 pA in peak amplitude, was added to each chamber. The GABA EC20 concentration was then washed out of the recording chamber after 5 s and washing with extracellular saline was continued for 60 s. After another 60 s, a second GABA EC20 concentration was applied under the same paradigm. […] Following the second GABA EC20 application, the lowest concentration of test compound in the presence of the GABA EC20 concentration was similarly applied. Ascending concentrations of the test compound were applied successively to an individual well in the presence of the GABA EC20 concentration.
# Only cells meeting strict predetermined patch-clamp QC parameters, including seal resistance, membrane resistance, and holding current were included in data analysis. GABA current responses in the presence of test compound were measured and expressed as the mean of the initial control GABA EC20 current responses. The peak current amplitude was measured using DataXpress/pCLAMP9 (Axon Instruments). Linear leak subtraction was performed off-line. […]
# T1 sequence (P23576 29-451): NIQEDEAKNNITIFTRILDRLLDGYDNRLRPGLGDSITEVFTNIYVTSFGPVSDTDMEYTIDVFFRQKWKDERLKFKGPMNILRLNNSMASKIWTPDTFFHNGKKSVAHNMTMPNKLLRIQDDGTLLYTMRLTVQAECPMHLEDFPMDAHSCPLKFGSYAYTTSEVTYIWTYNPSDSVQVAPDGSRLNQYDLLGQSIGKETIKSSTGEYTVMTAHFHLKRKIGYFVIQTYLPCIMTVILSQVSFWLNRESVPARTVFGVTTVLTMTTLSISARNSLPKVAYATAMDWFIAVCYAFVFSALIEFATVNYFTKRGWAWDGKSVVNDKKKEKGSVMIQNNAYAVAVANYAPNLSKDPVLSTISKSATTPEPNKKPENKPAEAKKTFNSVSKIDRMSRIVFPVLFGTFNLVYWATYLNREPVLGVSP
# T1 sequence (P63138 25-474 partner limits assumed): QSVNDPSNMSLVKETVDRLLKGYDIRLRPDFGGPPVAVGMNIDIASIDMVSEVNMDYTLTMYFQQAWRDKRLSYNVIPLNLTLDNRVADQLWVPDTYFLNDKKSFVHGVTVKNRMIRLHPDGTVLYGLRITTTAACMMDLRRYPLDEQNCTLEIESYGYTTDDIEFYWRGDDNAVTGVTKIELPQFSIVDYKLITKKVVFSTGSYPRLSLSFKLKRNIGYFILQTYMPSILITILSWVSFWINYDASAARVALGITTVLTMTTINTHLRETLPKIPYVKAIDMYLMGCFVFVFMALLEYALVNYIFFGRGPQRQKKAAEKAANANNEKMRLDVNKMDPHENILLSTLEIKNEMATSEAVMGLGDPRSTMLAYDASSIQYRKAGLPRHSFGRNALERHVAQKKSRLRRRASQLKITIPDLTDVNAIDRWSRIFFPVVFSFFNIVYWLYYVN
# T1 sequence (P18508 39-466 partner): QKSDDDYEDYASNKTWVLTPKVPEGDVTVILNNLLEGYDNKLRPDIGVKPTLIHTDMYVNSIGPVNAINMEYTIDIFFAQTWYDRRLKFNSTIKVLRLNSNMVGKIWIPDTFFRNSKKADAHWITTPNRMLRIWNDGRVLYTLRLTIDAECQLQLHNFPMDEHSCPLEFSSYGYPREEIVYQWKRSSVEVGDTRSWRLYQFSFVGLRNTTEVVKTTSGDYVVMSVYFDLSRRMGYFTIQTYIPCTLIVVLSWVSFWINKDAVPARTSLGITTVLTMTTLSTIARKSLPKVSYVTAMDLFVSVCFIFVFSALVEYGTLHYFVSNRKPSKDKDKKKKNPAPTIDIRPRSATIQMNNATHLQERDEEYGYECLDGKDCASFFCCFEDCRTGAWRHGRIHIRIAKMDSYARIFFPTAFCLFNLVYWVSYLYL
row,Compound,GABAA α2 EP EMAX (%)
1,"C#Cc1ccc2c(c1)C(c1ccccc1)=NCc1c(C(=O)NCCOCCNC(=O)c3ncn4c3CN=C(c3ccccc3)c3cc(C#C)ccc3-4)ncn1-2 [Example 23, N,N′-(2,2′-Oxybis(ethane-2,1-diyl))bis(8-ethynyl-6-phenyl-4H-benzo[f]imidazo[1,5-a][1,4]diazepine-3-carboxamide)]",* (200% < Emax < 300 *)
2,"C#Cc1ccc2c(c1)C(c1ccccc1)=NCc1c(C(=O)NCCSCCNC(=O)c3ncn4c3CN=C(c3ccccc3)c3cc(C#C)ccc3-4)ncn1-2 [Example 25, N,N′-(2,2′-Thiobis(ethane-2,1-diyl))bis(8-ethynyl-6-phenyl-4H-benzo[f]imidazo[1,5-a][1,4]diazepine-3-carboxamide)]",* (200% < Emax < 300 *)
3,"C#Cc1ccc2c(c1)C(c1ccccc1)=NCc1c(C(=O)NCCN(C)CCNC(=O)c3ncn4c3CN=C(c3ccccc3)c3cc(C#C)ccc3-4)ncn1-2 [Example 24, N,N′-(2,2′-(Methylazanediyl)bis(ethane-2,1-diyl))bis(8-ethynyl-6-phenyl-4H-benzo[f]imidazo[1,5-a][1,4]diazepine-3-carboxamide)]",** (300% < Emax < 400 **)
4,"N-Cyclopropyl-8-ethynyl-6-phenyl-4H-benzo[f]imidazo[1,5-a][1,4]diazepine-3-carboxamide [Example 11]",** (300% < Emax < 400 **)

# Same assay, conditions: percent increase in mean GABA EC20 current response; HEK293 cells stably expressing rat GABAA α2β2γ2; voltage-clamped at −60 mV; read-out: GABAA α2 EP EMAX (%)
row,Compound,Emax
1,"C#Cc1ccc2c(c1)C(c1ccccc1)=NCc1c(C(=O)NCCCO)ncn1-2 [Example 29, 8-Ethynyl-N-(3-hydroxypropyl)-6-phenyl-4H-benzo[f]imidazo[1,5-a][1,4]diazepine-3-carboxamide dihydrochloride]",300 to 400%
2,"C#Cc1ccc2c(c1)C(c1ccccc1)=NCc1c(C(=O)N3CCN(C)CC3)ncn1-2 [Example 8, (8-Ethynyl-6-phenyl-4H-benzo[f]imidazo[1,5-a][1,4]diazepin-3-yl)(4-methylpiperazin-1-yl)methanone]",300 to 400%
3,"C#Cc1ccc2c(c1)C(c1ccccc1)=NCc1c(C(=O)NCCN(C)C)ncn1-2 [Example 6, N-(2-(Dimethylamino)ethyl)-8-ethynyl-6-phenyl-4H-benzo[f]imidazo[1,5-a][1,4]diazepine-3-carboxamide]",300 to 400%
4,"C#Cc1ccc2c(c1)C(c1ccccc1)=NCc1c(C(=O)NCCOCC)ncn1-2 [Example 12, N-(2-Ethoxyethyl)-8-ethynyl-6-phenyl-4H-benzo[f]imidazo[1,5-a][1,4]diazepine-3-carboxamide dihydrochloride]",300 to 400%
5,"C#Cc1ccc2c(c1)C(c1ccccc1)=NCc1c(C(=O)NCC)ncn1-2 [Example 2, N-Ethyl-8-ethynyl-6-phenyl-4H-benzo[f]imidazo[1,5-a][1,4]diazepine-3-carboxamide dihydrochloride]",300 to 400%
6,"C#Cc1ccc2c(c1)C(c1ccccc1)=NCc1c(C(=O)NCC(=O)OCC)ncn1-2 [Example 7, Ethyl 2-(8-ethynyl-6-phenyl-4H-benzo[f]imidazo[1,5-a][1,4]diazepine-3-carboxamido)acetate]",300 to 400%
7,"C#Cc1ccc2c(c1)C(c1ccccc1)=NCc1c(C(=O)NC(C)COC)ncn1-2 (centres unmarked) [Example 17, 8-Ethynyl-N-(1-methoxypropan-2-yl)-6-phenyl-4H-benzo[f]imidazo[1,5-a][1,4]diazepine-3-carboxamide]",200 to 300%
8,"C#Cc1ccc2c(c1)C(c1ccccc1)=NCc1c(C(=O)N[C@@H](COC)C3CC3)ncn1-2 [Example 14, N—((R)-1-Cyclopropyl-2-methoxyethyl)-8-ethynyl-6-phenyl-4H-benzo[f]imidazo[1,5-a][1,4]diazepine-3-carboxamide]",200 to 300%
9,"C#Cc1ccc2c(c1)C(c1ccccc1)=NCc1c(C(=O)NC(COC)COC)ncn1-2 [Example 15, N-(1,3-Dimethoxypropan-2-yl)-8-ethynyl-6-phenyl-4H-benzo[f]imidazo[1,5-a][1,4]diazepine-3-carboxamide]",200 to 300%
10,"C#Cc1ccc2c(c1)C(c1ccccc1)=NCc1c(C(=O)NCCOC(C)=O)ncn1-2 [Example 32, 2-(8-Ethynyl-6-phenyl-4H-benzo[f]imidazo[1,5-a][1,4]diazepine-3-carboxamido)ethyl acetate dihydrochloride]",300 to 400%
11,"C#Cc1ccc2c(c1)C(c1ccccc1)=NCc1c(C(=O)NCCCCO)ncn1-2 [Example 31, 8-Ethynyl-N-(4-hydroxybutyl)-6-phenyl-4H-benzo[f]imidazo[1,5-a][1,4]diazepine-3-carboxamide dihydrochloride]",300 to 400%
12,"C#Cc1ccc2c(c1)C(c1ccccc1F)=NCc1c(C(=O)NCCOC)ncn1-2 [Example 34, 8-Ethynyl-6-(2-fluorophenyl)-N-(2-methoxyethyl)-4H-benzo[f]imidazo[1,5-a][1,4]diazepine-3-carboxamide dihydrochloride]",300 to 400%
13,"C#Cc1ccc2c(c1)C(c1ccccc1)=NCc1c(C(N)=O)ncn1-2 [Example 3, 8-Ethynyl-6-phenyl-4H-benzo[f]imidazo[1,5-a][1,4]diazepine-3-carboxamide]",300 to 400%
14,"C#Cc1ccc2c(c1)C(c1ccccc1)=NCc1c(C(=O)NC[C@@H](C)O)ncn1-2 [Example 27, 8-Ethynyl-N—((R)-2-hydroxypropyl)-6-phenyl-4H-benzo[f]imidazo[1,5-a][1,4]diazepine-3-carboxamide]",200 to 300%
15,"C#Cc1ccc2c(c1)C(c1ccccc1)=NCc1c(C(=O)NC[C@H](C)O)ncn1-2 [Example 28, 8-Ethynyl-N—((S)-2-hydroxypropyl)-6-phenyl-4H-benzo[f]imidazo[1,5-a][1,4]diazepine-3-carboxamide]",300 to 400%
16,"C#Cc1ccc2c(c1)C(c1ccccc1)=NCc1c(C(=O)NCCOC(C)C)ncn1-2 [Example 20, 8-Ethynyl-N-(2-isopropoxyethyl)-6-phenyl-4H-benzo[f]imidazo[1,5-a][1,4]diazepine-3-carboxamide]",400 to 500%
17,"C#Cc1ccc2c(c1)C(c1ccccc1)=NCc1c(C(=O)NCCOC)ncn1-2 [Example 4, 8-Ethynyl-N-(2-methoxyethyl)-6-phenyl-4H-benzo[f]imidazo[1,5-a][1,4]diazepine-3-carboxamide Dihydrochloride]",> 500%
18,"C#Cc1ccc2c(c1)C(c1ccccc1)=NCc1c(C(=O)NCCO)ncn1-2 [Example 5, 8-Ethynyl-N-(2-hydroxyethyl)-6-phenyl-4H-benzo[f]imidazo[1,5-a][1,4]diazepine-3-carboxamide]",400 to 500%
19,"C#Cc1ccc2c(c1)C(c1ccccc1)=NCc1c(C(=O)NCC(=O)O)ncn1-2 [Example 33, 2-(8-Ethynyl-6-phenyl-4H-benzo[f]imidazo[1,5-a][1,4]diazepine-3-carboxamido)acetic acid]",400 to 500%
20,"C#Cc1ccc2c(c1)C(c1ccccc1)=NCc1c(C(=O)NCCCCCO)ncn1-2 [Example 30, 8-Ethynyl-N-(5-hydroxypentyl)-6-phenyl-4H-benzo[f]imidazo[1,5-a][1,4]diazepine-3-carboxamide dihydrochloride]",300 to 400%
21,"C#Cc1ccc2c(c1)C(c1ccccc1)=NCc1c(C(=O)N(CC)CC)ncn1-2 [Example 1, N,N-Diethyl-8-ethynyl-6-phenyl-4H-benzo[f]imidazo[1,5-a][1,4]diazepine-3-carboxamide]",400 to 500%
22,"C#Cc1ccc2c(c1)C(c1ccccc1)=NCc1c(C(=O)N3CCN(c4ncccn4)CC3)ncn1-2 [Example 21, (8-Ethynyl-6-phenyl-4H-benzo[f]imidazo[1,5-a][1,4]diazepin-3-yl)(4-(pyrimidin-2-yl)piperazin-1-yl)methanone]",200 to 300%
